Assays:
[1] = target: T1, P-gp (Homo sapiens, UniProt P08183); experiment: Bidirectional transport in Caco-2 cell monolayer with P-gp inhibitor quinidine; type: in vitro ADME; details: ER > 2, reduced after quinidine
T1 construct: evaluated using Caco-2 cell monolayer both apical-to-basolateral (A-B) and basolateral-to-apical (B-A) directions; endogenous in cells; host or cells: Caco-2
Method: (§1) The human colon adenocarcinoma Caco-2 cell line was provided by Institute of Basic Medicine, Chinese Academy of Medical Sciences (Beijing, China). Caco-2 cells were cultured in a high sugar DMEM medium containing 10% (v/v) fetal bovine serum at 37°C and 5% CO2 incubator. Caco-2 cells (2.5 ×10^5/mL) was inoculated into Transwell polycarbonate membrane 12 well plate. The culture medium was changed every 2 days for the first 14 days, and then every day. After 21 consecutive days, fully differentiated cell monolayers were obtained for drug transport assays.
(§2) Transepithelial electrical resistance (TEER) was used to indicate monolayer integrity. The electrode of the Millcell ERS-2 voltammeter was placed in HBSS solution for 20 min to pre-balance. At the same time, the culture medium was removed from the Transwell culture plate, 0.5 mL of pre-heated HBSS solution was added into the Apical (AP) of transwell, 1.5 mL of pre-heated HBSS solution was added into the Basolateral (BL) of transwell. After that, the transwell was balanced at 37°C for 20 min and then replaced the HBSS solution with the pre-heated HBSS solution, the TEER value was measured finally. Caco-2 cell monolayers with TEER >350 Ω cm^2 which means that the cells have formed a tight monolayer, were used for the experiment. The TEER value was calculated according to the following formula: TEER=TEERT ‐ TEERc×A where TEERT represented the TEER value (Ω) of the measured Transwell chamber with Caco-2 cells, TEERC was the TEER value (Ω) of the transwell chamber in the control group, and A was the membrane area of the transwell cavity (1.12 cm^2 in this experiment).
(§3) In order to evaluate the usability of the Transwell model research, [^3H] Propranolol (0.5 μCi/mL) and [^14C] PEG4000 (1 μCi/mL) served as high-permeability and impermeability controls to verify the uptake direction on Caco-2 cell monolayer, respectively. Rhodamine 123 was used as a positive control for efflux mechanism in bidirectional transport assay on Caco-2 cell monolayer.
(§4) The transmembrane permeability of Deg-AZM (2, 10 or 50 µM) and the potential to inhibit P-gp by Deg-AZM (2, 10 or 50 µM) were evaluated using Caco-2 cell monolayer both apical-to-basolateral (A-B) and basolateral-to-apical (B-A) directions at 37°C for 1 h, the experiments were conducted using quinidine (50 μM) as the inhibitor for P-gp. At the end of incubation, receiver and donor samples were both diluted by assay buffer and analyzed by LC-MS/MS.

[2] = test system: T2, P-gp; experiment: as above; type: in vitro ADME, human; details: human, Caco-2, with quinidine 50 μM, (+) quinidine 50 μM, 37°C 1 h, n = 3
T2 construct: evaluated using Caco-2 cell monolayer both apical-to-basolateral (A-B) and basolateral-to-apical (B-A) directions; endogenous in cells; host or cells: Caco-2
Method: as §1, §2, §3, §4

[3] = test system: CYP3A; experiment: HLM phenotyping assay with CYP3A inhibitor ketoconazole; type: in vitro ADME, human; details: 1 μM, HLM 0.5 mg/mL, NADPH, 90 min, with 1 µM ketoconazole
Method: Deg-AZM (1 μM) was treated with pooled HLM (0.5 mg/mL) and NADPH (1 mM) for 90 min with or without seven specific inhibitors (10 µM furafylline for CYP1A2, 10 µM ticlopidine for CYP2B6, 5 µM montelukast for CYP2C8, 10 µM sulfaphenazole for CYP2C9, 10 µM ticlopidine for CYP2C19, 2.5 µM quinidine for CYP2D6, 1 µM ketoconazole for CYP3A). Isoform-selective probe substrates, 10 µM phenacetin for CYP1A2, 20 µM bupropion for CYP2B6, 2 µM amodiaquine for CYP2C8, 5 µM diclofenac for CYP2C9, 20 µM S-mephenytoin for CYP2C19, 5 µM bufuralol for CYP2D6, 2 µM midazolam for CYP3A4, were used as positive controls.

[4] = test system: CYP1A2; experiment: CYP induction (mRNA, qPCR) in human hepatocytes; type: in vitro ADME; details: for CYP1A2 induction, % of PC: PC omeprazole 50 μM
Excerpt: (§5) After culture and complete induction, total mRNA was extracted by TRNzol RNA Extraction Kit (purchased from Tiangen Biochemical Technology Co., Ltd., Beijing). The RNA was reverse transcribed into cDNA according to the instructions of the Transcriptor First Strand cDNA Synthesis Kit (purchased from Roche, Switzerland). Using reverse transcribed cDNA as a template, amplifying the internal reference genes of β-Actin of the sample and target genes of CYP1A2, CYP2B6, and CYP3A4 respectively to compare the expression differences.

[5] = test system: CYP3A4; experiment: CYP induction (mRNA, qPCR) in human hepatocytes; type: in vitro ADME; details: for CYP3A4 induction, % of PC: PC rifampicin 20 μM
Excerpt: as §5

[6] = set-up: method as in Gu et al., 2024; details: rats, 0-24 h; ref Gu et al., 2024; cited from earlier work
[7] = 5 μM, hepatocyte batch LHuf 17905B
[8] = 25 μM, hepatocyte batch LHuf 17905B
[9] = 100 μM, hepatocyte batch LHuf 17905B

T1 sequence (P08183 whole entry): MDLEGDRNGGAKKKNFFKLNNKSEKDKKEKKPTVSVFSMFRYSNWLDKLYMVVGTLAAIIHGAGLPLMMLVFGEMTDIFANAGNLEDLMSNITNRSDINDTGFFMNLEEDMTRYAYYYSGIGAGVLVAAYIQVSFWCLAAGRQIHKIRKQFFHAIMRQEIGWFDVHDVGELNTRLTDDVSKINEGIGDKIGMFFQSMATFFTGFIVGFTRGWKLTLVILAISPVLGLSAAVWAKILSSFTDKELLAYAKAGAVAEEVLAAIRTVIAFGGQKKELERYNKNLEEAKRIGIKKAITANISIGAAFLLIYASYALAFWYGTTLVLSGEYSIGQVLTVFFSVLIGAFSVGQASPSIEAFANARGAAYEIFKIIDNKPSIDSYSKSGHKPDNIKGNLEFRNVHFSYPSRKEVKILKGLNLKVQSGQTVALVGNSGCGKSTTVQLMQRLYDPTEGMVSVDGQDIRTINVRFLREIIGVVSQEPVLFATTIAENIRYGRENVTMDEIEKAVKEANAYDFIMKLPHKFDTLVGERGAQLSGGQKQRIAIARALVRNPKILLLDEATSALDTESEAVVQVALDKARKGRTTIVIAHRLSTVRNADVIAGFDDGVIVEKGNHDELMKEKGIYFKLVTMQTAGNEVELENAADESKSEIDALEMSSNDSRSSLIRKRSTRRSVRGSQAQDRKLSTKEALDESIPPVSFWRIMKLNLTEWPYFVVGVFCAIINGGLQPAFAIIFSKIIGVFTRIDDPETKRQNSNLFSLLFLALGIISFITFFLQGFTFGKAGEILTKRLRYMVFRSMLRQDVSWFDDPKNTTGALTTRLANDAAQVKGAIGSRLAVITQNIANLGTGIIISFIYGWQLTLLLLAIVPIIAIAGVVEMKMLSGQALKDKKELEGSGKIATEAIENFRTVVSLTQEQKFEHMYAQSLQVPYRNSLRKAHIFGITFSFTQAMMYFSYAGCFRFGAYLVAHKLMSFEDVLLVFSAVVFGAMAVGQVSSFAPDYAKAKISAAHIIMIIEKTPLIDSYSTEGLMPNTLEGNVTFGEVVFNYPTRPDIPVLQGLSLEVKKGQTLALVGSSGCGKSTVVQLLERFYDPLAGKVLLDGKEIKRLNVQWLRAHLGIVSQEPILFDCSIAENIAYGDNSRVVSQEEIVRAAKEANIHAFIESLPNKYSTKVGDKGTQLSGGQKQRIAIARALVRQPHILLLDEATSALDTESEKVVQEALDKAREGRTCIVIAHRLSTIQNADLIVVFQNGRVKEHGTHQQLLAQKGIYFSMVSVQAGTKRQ

With CCC1OC(=O)C(C)C(O)C(C)C(O)C(C)(O)CC(C)CN(C)C(C)C(O)C1(C)O (stereo not drawn) [Deg-AZM, Deglycosylated azithromycin] the P-gp substrate assessment [1] was “might be the substrate of intestinal efflux transporter P-gp”, the Papp A→B at 1 h, 2 μM ([2]; 2 μM) was 0.823 ± 0.0911 ×10⁻⁶ cm/s and the Papp B→A at 1 h, 2 μM ([2]; 2 μM) was 0.617 ± 0.0488 ×10⁻⁶ cm/s. The Papp A→B at 1 h, 10 μM ([2]; 10 μM) was 0.471 ± 0.0908 ×10⁻⁶ cm/s, the Papp B→A at 1 h, 10 μM ([2]; 10 μM) was 0.52 ± 0.119 ×10⁻⁶ cm/s and the Papp A→B at 1 h, 50 μM ([2]; 50 μM) was 0.589 ± 0.0315 ×10⁻⁶ cm/s. For the same compound, the Papp B→A at 1 h, 50 μM ([2]; 50 μM) was 0.586 ± 0.117 ×10⁻⁶ cm/s, the Deg-AZM remaining [3] was 93.4% and the “CYP1A2 induction, % of PC” value ([4]; 5 μM, batch HUB) was −0.318%. For the same compound, the “CYP1A2 induction, % of PC” value ([4]; 5 μM, batch LHuf 17905B) was −0.507%, the “CYP1A2 induction, % of PC” value ([4]; 5 μM, batch MWB) was 0.0293% and the “CYP1A2 mRNA induction, times of control group” value (“CYP1A2 mRNA induction, times” below) ([4]; 5 μM, hepatocyte batch HUB) was 0.850. For the same compound, the “CYP1A2 mRNA induction, times” value [4, 7] was 0.721, the “CYP1A2 mRNA induction, times” value ([4]; 5 μM, hepatocyte batch MWB) was 1.02 and the “CYP1A2 induction, % of PC” value ([4]; 25 μM, batch HUB) was −0.349%. The “CYP1A2 induction, % of PC” value ([4]; 25 μM, batch LHuf 17905B) was −0.569%, the “CYP1A2 induction, % of PC” value ([4]; 25 μM, batch MWB) was −0.0814% and the “CYP1A2 mRNA induction, times” value ([4]; 25 μM, hepatocyte batch HUB) was 0.835. For the same compound, the “CYP1A2 mRNA induction, times” value [4, 8] was 0.687, the “CYP1A2 mRNA induction, times” value ([4]; 25 μM, hepatocyte batch MWB) was 0.948 and the “CYP1A2 induction, % of PC” value ([4]; 100 μM, batch HUB) was 0.0545%. For the same compound, the “CYP1A2 induction, % of PC” value ([4]; 100 μM, batch LHuf 17905B) was −0.209%, the “CYP1A2 induction, % of PC” value ([4]; 100 μM, batch MWB) was −0.319% and the “CYP1A2 mRNA induction, times” value ([4]; 100 μM, hepatocyte batch HUB) was 1.03. For the same compound, the “CYP1A2 mRNA induction, times” value [4, 9] was 0.885, the “CYP1A2 mRNA induction, times” value ([4]; 100 μM, hepatocyte batch MWB) was 0.797 and the “Induction effect on CYP1A2 (conclusion)” value ([4]; 5, 25, and 100 µM, three batches of human hepatocytes) was “no induction effect”. The “CYP3A4 induction, % of PC” value ([5]; 5 μM, batch HUB) was 2.15%, the “CYP3A4 induction, % of PC” value ([5]; 5 μM, batch LHuf 17905B) was 5.55% and the “CYP3A4 induction, % of PC” value ([5]; 5 μM, batch MWB) was 1.99%. For the same compound, the “CYP3A4 mRNA induction, times of control group” value (from here on “CYP3A4 mRNA induction, times”) ([5]; 5 μM, hepatocyte batch HUB) was 1.80, the “CYP3A4 mRNA induction, times” value [5, 7] was 2.30 and the “CYP3A4 mRNA induction, times” value ([5]; 5 μM, hepatocyte batch MWB) was 1.96. For the same compound, the “CYP3A4 induction, % of PC” value ([5]; 25 μM, batch HUB) was 3.06%, the “CYP3A4 induction, % of PC” value ([5]; 25 μM, batch LHuf 17905B) was 12.1% and the “CYP3A4 induction, % of PC” value ([5]; 25 μM, batch MWB) was 6.32%. For the same compound, the “CYP3A4 mRNA induction, times” value ([5]; 25 μM, hepatocyte batch HUB) was 2.13, the “CYP3A4 mRNA induction, times” value [5, 8] was 3.84 and the “CYP3A4 mRNA induction, times” value ([5]; 25 μM, hepatocyte batch MWB) was 4.05. The “CYP3A4 induction, % of PC” value ([5]; 100 μM, batch HUB) was 13.5%, the “CYP3A4 induction, % of PC” value ([5]; 100 μM, batch LHuf 17905B) was 54.2% and the “CYP3A4 induction, % of PC” value ([5]; 100 μM, batch MWB) was 29.3%. The “CYP3A4 mRNA induction, times” value ([5]; 100 μM, hepatocyte batch HUB) was 6.01, the “CYP3A4 mRNA induction, times” value [5, 9] was 13.7 and the “CYP3A4 mRNA induction, times” value ([5]; 100 μM, hepatocyte batch MWB) was 15.2. The “Induction effect on CYP3A4 (conclusion)” value ([5]; 5, 25, and 100 µM, three batches of primary human hepatocytes) was “has an inducing effect”, the “Amount excreted in original form from feces” value [6] was 1.81 % of the administered dose and the “Amount excreted in original form from urine” value [6] was 14.9 % of the administered dose.

— PMC11750672, “The in vivo metabolic pathway of Deg-AZM and in vitro investigations into the contribution of drug metabolizing enzymes and drug transporters in the drug interactions of Deg-AZM, a clinical-stage new transgelin agonist” (Frontiers in Pharmacology, 2025)
